Source: patent US8211463B2, “Use of glycolipids as adjuvants” (Helmholtz-Zentrum Fuer Infektionsforschung GmbH, priority 2006, dated 2012)
“Also recorded” adds a separate entry of the source.

How the values were obtained:
[1] = system: IFNγ, IL-2 and IL-4 secreting splenocytes; test: Elispot of cytokine-secreting splenocytes (IFNγ, IL-2, IL-4); type: in vivo, Balb/c mice; conditions: for spot forming units (SFU) secreting IFNγ / spot forming units (SFU) secreting IFNγ / cytokine secretion: i.n.; for spot forming units (SFU) secreting IFNγ / secretion of IFNγ, IL-2 and IL-4 (SFU) vs β-Gal alone: 10 μg glycolipid; for spot forming units (SFU) secreting IFNγ: MHC class I restricted β-Gal peptide 2 μg/ml, 24 h; for secretion of IFNγ, IL-2 and IL-4 (SFU) vs β-Gal alone / secretion of IFNγ, IL-2 and IL-4 (SFU) vs control animals: s.c. (parenteral); for spot forming units (SFU) secreting IFNγ / cytokine secretion / secretion of IFNγ, IL-2 and IL-4 (SFU) vs control animals: 20 up to 30 μg glycolipid
Description: Co-administration of β-Gal with 10 μg glycolipids 1, 5 and 6 induced a strong cellular immune responses and enhanced levels of IFNγ, IL-2 and IL-4 in response to enhanced concentration of the β-Gal antigen in Balb/c mice. Balb/c mice were immunized by the i.n. or s.c. route with β-Gal alone or together with glycolipids 1, 5 and 6 three times at 2-wk intervals. 10 days after the final immunization, the immunized mice were sacrificed. Splenocytes of mice immunized by the i.n. (FIG. 12) and s.c. (FIG. 13) route were collected and cultured with different concentrations of the antigen. A total of 5×10^6 cells/ml spleen cells were cultured with 2 μg/ml of the MHC cI.I restricted β-Gal peptide (IFNγ) for 24 h and the β-Gal-Protein (IL-2 and 4) for 48 h. IFNγ producing CD8+ T cells were analyzed using BD Elispot kit according to the manufacturer's instructions. […] Bars represent Spot forming units of 10^6 splenocytes with subtracted background mean SFU±SE in each group. Each group consists of five mice. Data are representative of three separate experiments.
Co-administration of β-Gal with 20 up to 30 μg glycolipids 5 and 6 induced strong cellular immune responses and enhanced levels of IFNγ, IL-2 and IL-4 in response to enhanced concentration of the β-Gal antigen in Balb/c mice. Balb/c mice were immunized by the i.n. or s.c. route with β-Gal alone or together with glycolipids 5 and 6 three times at 2-wk intervals. 10 days after the final immunization, the immunized mice were sacrificed. Splenocytes of mice immunized by the i.n. (FIG. 14) and s.c. (FIG. 15) route were collected and cultured with different concentrations of. A total of 5×10^6 cells/ml spleen cells were cultured with 2 μg/ml of the MHC class I restricted β-Gal peptide (IFNγ) for 24 h and the β-Gal-Protein (IL-2 and 4) for 48 h. IFNγ producing CD8+ T cells were analyzed using BD Elispot kit according to the manufacturer's instructions. […] Bars represent Spot forming units of 10^6 splenocytes with subtracted background mean SFU±SEM in each group. Each group consists of five mice. Data are representative of three separate experiments.
Experimental protocol: Spleens from vaccinated mice were removed and pooled for analysis of cellular immune responses. The protocol for vaccination was identical to the protocol described in Example 2. Cells were grown in RPMI 1640 supplemented with 10% fetal calf serum, 100 U/ml of penicillin, 50 μg/ml of streptomycin, 5×10^−5 M 2-mercaptoethanol and 1 mM L-glutamine (GIBCO BRL, Karlsruhe, Germany) and maintained at 37° C. in a humidified 5% CO2 atmosphere. Lymph node and spleen cell suspensions were adjusted to 5×10^6 cells/ml in complete medium, cells were seeded with 100 μl per well in a flat-bottomed 96-well microtiter plate (Nunc) and plates were incubated for 4 days in the presence of different concentrations of soluble β-Gal.
Splenocytes of mice immunized by the i.n. (FIG. 12) and s.c. (FIG. 13) route were collected and cultured with different concentrations of the antigen. A total of 5×10^6 cells/ml spleen cells were cultured with 2 μg/ml of the MHC cI.I restricted β-Gal peptide (IFNγ) for 24 h and the β-Gal-Protein (IL-2 and 4) for 48 h. IFNγ producing CD8+ T cells were analyzed using BD Elispot kit according to the manufacturer's instructions. […] Bars represent Spot forming units of 10^6 splenocytes with subtracted background mean SFU±SE in each group. Each group consists of five mice. Data are representative of three separate experiments.

[2] = Tolerability of co-administered glycolipids: body weight and behaviour tested daily; type: in vivo
Description: The body weight and the behaviour of the animals were tested daily. The Balb/c mice were immunized by the mucosal (i.n.) or parenteral (s.c.) route with β-Gal alone or together with glycolipids 1, 5 and 6 three times at 2-wk intervals (day 1, 14 and 28). 10 days after the final immunization (day 38), the immunized mice were sacrificed.
Experimental protocol: six-eight weeks-old female BALB/c (H-2d) mice were purchased from Harlan Winkelmann GmbH (Borchen, Germany) and treated in accordance with local and European Community guidelines. Groups of 5 mice each were immunized on day 01, 14 and 28 with 30 μg of β-Gal (Boehringer, Mannheim, Germany), alone or with 10 μg of glycolipids 1, 5, or 6, respectively, see FIG. 2. For intranasal (i.n.) immunization, 10 μl were applied to each naris, whereas for the s.c. injection β-Gal with or without glycolipids 1, 5 or 6, respectively, was resuspended in a volume of 50 μl PBS per animal. Serum samples were collected at day 38 after immunization and stored at −20° C. prior to determination of β-Gal-specific antibodies. 96-well Nunc-Immuno MaxiSorp assay plates (Nunc, Roskilde, Denmark) were coated with 100 μl of β-Gal (Boehringer, Mannheim, Germany) at 5 μg/ml in 0.05 M carbonate buffer (pH 8.2) per well. Serial two-fold dilutions of sera or lavages in PBS with 1% BSA and 0.05% Tween 20 were added (100 μl/well), and plates incubated for 16 h at 37° C. After washing, biotinylated γ-chain-specific goat anti-mouse IgG (Sigma Chemie, Deisenhofen, Germany) was added, and plates were incubated for an additional 1 h at 37° C. After four washes, 100 μl of peroxidase-conjugated streptavidin (Pharmingen) was added to cells and plates incubated at 37° C. for 30 min. After four washes, reactions were developed with ABTS in 0.1 M citrate-phosphate buffer (pH 4.35) containing 0.01% H2O2.

[3] = co-administered with 30 μg β-Gal, i.n. and s.c., day 1, 14 and 28

Row | Compound | spot forming units (SFU) secreting IFNγ [1] | secretion of IFNγ, IL-2 and IL-4 (SFU) vs β-Gal alone [1] | toxic side effects (body weight and behaviour) ([2]; mouse, in vivo, sc) | spot forming units (SFU) secreting IFNγ / cytokine secretion [1] | secretion of IFNγ, IL-2 and IL-4 (SFU) vs control animals [1] | toxic side effects (body weight and behaviour) [2, 3]
1 | CCCCCCCC/C=C\CCCCCCCCOCC(COCCCCCCCC/C=C\CCCCCCCC)O[C@@H]1O[C@H](CO)[C@@H](O[C@H]2O[C@H](CO)[C@@H](O)[C@H](O)[C@H]2O)[C@H](O)[C@H]1O (relative stereo) [glycolipid 1, 1,3-Di-O[cis-9-octadecenyl]-2-O-[4′-O-(α-D-glycopyranosyl)-β-D-glycopyranosyl]-sn-glycerol] | only a weak secretion | only weak enhanced secretion | no toxic side effects; also recorded: no toxic side effects or changes in their behaviour |  |  | 
2 | CCCCCCCCCCCCCCOCC(COCCCCCCCCCCCCCC)O[C@@H]1O[C@H](CO)[C@@H](O[C@H]2O[C@H](CO)[C@@H](O)[C@H](O)[C@H]2O)[C@H](O)[C@H]1O [glycolipid 5, 1,3-Di-O-tetradecyl-2-O-[4′-O-(α-D-glucopyranosyl)-β-D-glucopyranosyl]-sn-glycerol] | enhanced expression | only weak enhanced secretion |  | enhanced expression | only a minor effect | no toxic side effects; also recorded: no toxic side effects or changes in their behaviour
3 | CCCCCCCCCCCCCCOCC(COCCCCCCCCCCCCCC)O[C@@H]1O[C@H](CO[C@H]2O[C@H](CO)[C@H](O)[C@H](O)[C@H]2O)[C@@H](O)[C@H](O)[C@H]1O [glycolipid 6, 1,3-di-O-tetradecyl-2-O-[6′-O-(α-D-galactopyranosyl)-β-D-glucopyranosyl]-sn-glycerol] | only a weak secretion | only weak enhanced secretion |  | reduced cytokine secretion | only a minor effect | no toxic side effects; also recorded: no toxic side effects or changes in their behaviour
